According to patent publication US10369188B2, “Methods for preventing and treating pneumocystis infections” (Cidara Therapeutics, Inc., priority 2016, dated 2019):

System: Pneumocystis murina
Assay: Pneumocystis murina prophylaxis study in dexamethasone-immunosuppressed mice (lung nuclei and asci counts)
Assay type: in vivo, C3H/HeN mice
Conditions: positive control group, 50/250 mg/kg/3x/wk, 6 weeks
Experimental: Briefly, the vehicle was prepared by first adding 1% Tween 20 to sterile phosphate-buffered saline (PBS) and then adding DMSO for a 10% DMSO in 1% Tween 20 in sterile PBS solution. […] For the 20 mg/kg/d dose, the drug was dissolved in vehicle to a concentration of 2.4 mg/ml. The mice then received 0.48 mg in a 200 μl dose. The drug was stored at −20° C. until initiation of dosage. The drug was prepared fresh for every two days of dosing.
C3H/HeN mice (Charles River) were infected with P. murina by intranasal inoculation of P. murina organisms at 2×106/50 μl from our liquid nitrogen repository. Prior to inoculation, the P. murina organisms were pre-incubated overnight in RPMI 1640 medium supplemented with calf serum and antibiotics to eliminate any bacterial contamination. […] Slides were made from the lung homogenates at different dilutions and stained with Diff-Quik to quantify the trophic forms and cresyl echt violet to quantify the asci.
Efficacy is based on the reduction of organism burden between the treatment groups and the negative control group as determined by microscopic evaluation. The nuclei and asci counts for each lung are log transformed and statistical analysis is determined by the analysis of variance (ANOVA); individual groups are compared by the Student-Newman-Keuls t test for multiple comparisons using GraphPad Prism. […]

With trimethoprim/sulfamethoxazole [TMP/SMX] the “asci observed by microscopic evaluation” value was “no asci observed” and the “nuclei seen by microscopic evaluation” value was “no nuclei seen”.
